Experiments:
Ewing sarcoma PDX = Ewing sarcoma PDX model (NCH-EWS-2); assay type: in vivo, NSG mouse; conditions: 3 mg/kg IP every other day, four weeks, vs vehicle
From the text: To generate PDX models, the Nationwide Children's Hospital Institutional Review Board approved the Human Subjects Protocol for the acquisition of surgically-removed tumor specimens from patients and informed patient consents were obtained. Shortly after resection, fresh tumor tissues with their histological types confirmed by a specialized pathologist were placed in Dulbecco's-modified Eagle (DME) medium (Invitrogen) and brought to the research laboratory. A piece of tumor fragment was implanted subcutaneously on the dorsal right flank area in an eight-to-ten week-old immunodeficient mouse under anesthesia. Tumors were allowed to grow until established, at which time the established PDX tumors were repeatedly passed from one animal to the next or cryopreserved. For Roc treatment, actively-growing PDXs for a Ewing sarcoma (NCH-EWS-2), an osteosarcoma (NCH—OS-7), and an alveolar rhabdomyosarcoma (NCH-ARMS-2) were excised and cut into 5-mm pieces. Each tumor piece was re-implanted into an NSG mouse and tumor growth was monitored. Once noted, the tumor sizes in the axial plane at its greatest dimension (L) and the orthogonal short dimension (S) were measured twice weekly using a Fowler Ultra-Cal Electronic Caliper. Approximated tumor volumes were calculated using the formula V=(L×S^2)/2. […]

STS26T cells = assay: Western blots of treated MPNST cells; assay type: cell-based, human; conditions: 1 or 2 IC50
Experimental: FIGS. 2A and 2B provide images showing that DDR and Roc increase caspase and PARP cleavage and elevated the levels of γH2AX while decreasing the expression of AKT and ERKs in MPNST cells. (A) Protein lysates prepared from STS26T cells treated for 3 days with 1 or 2 IC50 of DDR or Roc were analyzed by Western blots for the expression of various apoptosis-related proteins and mitogenic kinases AKT and ERK1/2. GAPDH served as a loading control. (B) Western blot analysis was performed on lysates from STS26T cells treated for 1 and 2 days with 1 or 2 IC50 of DDR for the expression of the DNA-damage response biomarker phosphorylated H2A.X (γH2A.X). As a positive control, lysates from HMS-97 human malignant schwannoma cells irradiated with 4 Grays (Gy) of X-ray were used.
Subconfluent cells were treated with the indicated doses of Roc or DDR for 24-72 hours and then harvested in cell lysis buffer (Cell Signaling Technology) containing 1 mM phenylmethylsufonylfluoride and protease inhibitor cocktail (Sigma-Aldrich). The protein content in cleared lysates was quantitated using the microBCA assay (ThermoFisher). Equal amounts of protein were run in sodium dodecyl sulfate-polyacrylamide gels and electrotransferred onto Immobilon-FL PVDF membranes (Millipore). The antibodies used were directed against: MDR1/ABCB1 (#13978), insulin-like growth factor-1 receptor β subunit (IGF-1Rβ; #9750), AKT (#9272), ERK1/2 (#4695), glyceraldehyde-3-phosphate dehydrogenase (GAPDH; #5174), caspase-3 (#9662), caspase-7 (#9492), cleaved caspase-7 (#9491), poly(ADP-ribose) polymerase (PARP; #9532), cleaved PARP (#5625), and phospho-histone H2A.X (pH2A.X[Ser′^39]; #9718; all from Cell Signaling Technology), NKX2.2 (sc-514161), LSD1 (sc-136174), and survivin (sc-17779; Santa Cruz Biotechnology), and FLI1 (ab15289) and cleaved caspase-3 (CC3; ab32042; Abeam). Protein bands were detected using IRDye® infrared fluorescent dye-labeled secondary antibodies and scanning on an Odyssey CLx imaging system (LI-COR Biosciences) using the appropriate fluorescent channel at a resolution of 84 μm.
To confirm induction of apoptosis in rocaglamide-treated MPNST cells, the inventors analyzed protein expression of several markers important for this process. […] A concomitant decrease in the amounts of intact caspases 3 and 7 and PARP was observed, consistent with the enhanced cleavage of these apoptotic markers and possibly due to direct effects of these rocaglamides on protein translation. Likewise, the levels of the pro-survival kinases AKT and ERK1/2 were diminished in rocaglamide-treated MPNST cells.

[1] = tested on: ST8814-Luc MPNST xenografts; assay: Orthotopic ST8814-Luc MPNST cell line-derived xenograft, bioluminescence imaging and IHC; assay type: in vivo, NSG mice; conditions: 4 weeks
Experimental: All animal work was performed according to the protocols approved by the Institutional Animal Care and Use Committee at Nationwide Children's Hospital. For animal dosing, Roc was formulated in 30% hydroxypropyl-β-cyclodextrin (HPβCD; CTD, Inc.). To generate the orthotopic MPNST CDX model, ST8814-Luc cells were injected into the sciatic nerves of NSG mice (NOD.Cg-Prkdc^scid Il2rg^imlWjl/SzJ; The Jackson Laboratory), followed by bioluminescence imaging (BLI) to monitor tumor growth. Burns and Chang, Methods Mol Biol., 1427:59-72 (2016). Mice bearing established ST8814-Luc tumors, as defined by increasing bioluminescence signals over at least two time points, were randomized into three groups (n=10 mice) and treated with the predetermined maximum tolerated dose (MTD) of Roc at 4 mg/kg by IP or 1.2 mg/kg by oral gavage, or the vehicle HPβCD every other day. Tumor growth was measured weekly by BLI. Following 4 weeks of treatment, tumors were harvested for histological analysis.
Sections from Roc or vehicle-treated MPNST tumors were prepared and stained with hematoxylin and eosin (H&E) or immunostained for p-histone H3(Ser^10) (pH3; ab32107, Abeam) or CC3 (#9664, Cell Signaling) as previously described. Burns et al., Cancer Res., 73:792-803 (2013).
To evaluate the in vivo activity of Roc, the inventors treated NSG mice bearing luciferase-expressing ST8814-Luc tumors implanted in the sciatic nerve with Roc at the predetermined MTD (4 mg/kg by IP or 1.2 mg/kg oral gavage), or IPβCD as the vehicle control every other day.

[2] = tested on: STS26T and ST8814 MPNST cells; assay: Flow cytometry cell cycle analysis; assay type: cell-based, human; conditions: one- or two-IC50 doses, three days
Experimental: Actively-growing cells were seeded in 96-well plates (Sarstedt) at 2,000 cells/well for Ben-Men-1 and RD cells, 30,000 cells/well for 697 and 697-R cells, and 4,000 cells/well for all other cell lines. The following day, cells were treated with various concentrations of each compound or and 0.05% of DMSO as the control for six days for MG-63 cells or three days for all remaining cell lines. Cell proliferation was assessed using resazurin assays and the IC50 value calculated. Cell cycle analysis was performed accordingly. Burns et al., Cancer Res., 73:792-803 (2013).

COc1ccc([C@@]23Oc4cc(OC)cc(OC)c4[C@]2(O)[C@H](O)[C@H](C(=O)N(C)C)[C@H]3c2ccccc2)cc1 [Roc, rocaglamide]
tumor growth inhibition (Ewing sarcoma PDX): ~90%
levels of γH2AX (STS26T cells; STS26T MPNST cells): elevated
cleavage of caspases 3 and 7 and PARP (STS26T cells; STS26T cells, 3 days): increased cleavage
expression of AKT and ERKs (STS26T cells; STS26T cells, 3 days): decreasing
increase of tumor bioluminescence over four weeks ([1]; 1.2 mg/kg PO (oral gavage) every other day, vehicle ~17,000-fold): ~470 fold
reduction in tumor bioluminescence compared to controls ([1]; 1.2 mg/kg oral gavage every other day): > 95%
reduction in tumor luminescence compared to controls ([1]; 4 mg/kg IP every other day): > 99%
phospho-histone H3 labeling in tumors vs vehicle ([1]; IP- or orally-delivered, IHC): much higher prevalence
cleaved caspase-3 positive cells in tumors ([1]; Roc-treated tumors, IHC): increased numbers
G2/M fraction [2]: marked increase in the GVM fraction

— patent US12403121B2, “Anticancer rocaglamide derivatives” (priority 2018, dated 2025)
